Data from the NIST ThermoML archive (doi:10.1016/j.jct.2008.07.008).

Columns and labels:
[1] = refractive index (Na D-line) (dimensionless); conditions: 101.33 kPa, Liquid, Standard Abbe refractometry
[2] = refractive index (Na D-line) (dimensionless); xn = mol fraction of the nth substance listed; conditions: 101 kPa, Liquid, Standard Abbe refractometry

N#Cc1ccccc1 [benzonitrile]
[1]
Conditions | refractive index
277.43 K | 1.5321
278.33 K | 1.5318
279.49 K | 1.5312
280.36 K | 1.5307
280.38 K | 1.5307
280.86 K | 1.5305
281.97 K | 1.5299
284.13 K | 1.5289

N#Cc1ccccc1 [benzonitrile] + CCCCCCCC
[2]
Conditions | refractive index
280.36 K, x1 = 0.092 | 1.4104
280.36 K, x1 = 0.244 | 1.4248
280.36 K, x1 = 0.344 | 1.4353
280.36 K, x1 = 0.558 | 1.4613
280.36 K, x1 = 0.644 | 1.4726
280.36 K, x1 = 0.762 | 1.4901
280.36 K, x1 = 0.821 | 1.4996
280.36 K, x1 = 0.927 | 1.5176
280.36 K, x1 = 1 | 1.5307
282.93 K, x1 = 0.558 | 1.4599
283.35 K, x1 = 0.344 | 1.4339
283.66 K, x1 = 0.558 | 1.4597
283.67 K, x1 = 0.344 | 1.4337
284.57 K, x1 = 0.344 | 1.4333
284.78 K, x1 = 0.558 | 1.4591
285.65 K, x1 = 0.344 | 1.4327
285.74 K, x1 = 0.558 | 1.4586
286.64 K, x1 = 0.558 | 1.4583
286.73 K, x1 = 0.344 | 1.4322
287.64 K, x1 = 0.558 | 1.4578
287.77 K, x1 = 0.344 | 1.4318
288.61 K, x1 = 0.558 | 1.4574
288.82 K, x1 = 0.344 | 1.4313

CCCCCCCC [octane]
[1]
Conditions | refractive index
277.8 K | 1.404
279.68 K | 1.4032
280.36 K | 1.4028
280.51 K | 1.4027
281.66 K | 1.4021
282.65 K | 1.4017
283.88 K | 1.4012
284.73 K | 1.4007

CCCCCCCC [octane] + N#Cc1ccccc1
Conditions | refractive index
[2], 280.36 K, x2 = 0 | 1.4028
